Legend:
[1] = test system: HepG2 human liver cancer cell strain; test: In vitro anti-proliferation of tumor cells (CCK-8), HepG2; type: cell-based; settings: HepG2, 72 hours
Experimental: (§1) Experimental Example 2: Determination of the Compounds According to the Present Invention for IC50 of the In Vitro Anti-Proliferation of Tumor Cells
HepG2 human liver cancer cell strain (purchased from Shanghai Institute of Cell Biology, Chinese Academy of Sciences);
(§2) Preparation of a compound: the compound was diluted with DMSO to a final concentration of 10 mM.
(§3) a) Cells in logarithmic growth phase were collected, counted, and re-suspended in complete medium. The concentration of cells was adjusted to a suitable concentration (determined depending on the result of optimization experiment of cell density), and the cells were seeded to a 96-well plate at 100 μl cell suspension per well. The cells were incubated in an incubator at 37° C., 100% relative humidity, 5% CO2 for 24 hours.
(§4) b) A test compound was diluted with the culture medium to 500 μM, and then gradient dilution was performed for 8 times. Cells were added at 25 μl/well. The final concentrations of the compound was in a range from 100 μM and 0 μM, 4-fold diluted, including 10 concentrations.
(§5) c) The cells were incubated in an incubator at 37° C., 100% relative humidity, 5% CO2 for 72 hours.
(§6) d) The culture medium was withdraw and discarded, the complete medium containing 10% CCK-8 was added, and then the cells were incubated in an incubator at 37° C. for 2-4 hours.
(§7) IC50 curve was fitted and IC50 value was calculated by professional software GraphPad Prism 5.0.
(§8) In the experiment, the compounds according to the present invention were determined for their IC50 values of in vitro anti-proliferation of tumor cell strains. The final concentrations of the compounds was in a range from 100 μM and 0 μM, 4-fold diluted, including 10 concentrations.

[2] = test system: NCI-H460 Human large cell lung cancer cell strain; test: In vitro anti-proliferation of tumor cells (CCK-8), NCI-H460; type: cell-based; settings: NCI-H460, 72 hours
Experimental: as §1
NCI-H460 Human large cell lung cancer cell strain (purchased from Shanghai Institute of Cell Biology, Chinese Academy of Sciences);
as §2, §3, §4, §5, §6, §7, §8

[3] = test system: A498 human renal carcinoma cell strain; test: In vitro anti-proliferation of tumor cells (CCK-8), A498; type: cell-based; settings: A498, 72 hours
Experimental: as §1
A498 human renal carcinoma cell strain (purchased from Shanghai Institute of Cell Biology, Chinese Academy of Sciences);
as §2, §3, §4, §5, §6, §7, §8

[4] = test system: HL-60 human acute myeloid leukemia cell strain; test: In vitro anti-proliferation of tumor cells (CCK-8), HL-60; type: cell-based; settings: HL-60, 72 hours
Experimental: as §1
HL-60 human acute myeloid leukemia cell strain (purchased from Shanghai Institute of Cell Biology, Chinese Academy of Sciences);
as §2, §3, §4, §5, §6, §7, §8

[5] = test system: SK-OV-3 human ovarian cancer cell strain; test: In vitro anti-proliferation of tumor cells (CCK-8), SK-OV-3; type: cell-based; settings: SK-OV-3, 72 hours
Experimental: as §1
SK-OV-3 human ovarian cancer cell strain (purchased from Shanghai Institute of Cell Biology, Chinese Academy of Sciences);
as §2, §3, §4, §5, §6, §7, §8

Pharmacokinetics in mice = type: in vivo; settings: female, plasma, CD-1 mouse; for bioavailability: PO 5 mg/kg vs IV 1 mg/kg, read-out: F (oral bioavailability); for AUC(0-t): read-out: AUClast (area under the curve)
Experimental: Administration route: intravenous injection (IV); per os (PO).
Fasting condition: free access to water, no fasting.
The mice were weighed before administration, and the administration volume was calculated based on their body weights (IV group: 4 mL/kg; PO group: 10 mL/kg).
Administration route and dose: Intravenous (IV) group: 1 mg/kg; Oral (PO) group: 5 mg/kg.
Animal grouping: 3 mice/group, an IV group and a PO group for each test compound.
After administration, 30 μL whole blood was collected from rim of the eyes of mice in the IV group at each pre-determined time point (5 min, 15 min, 30 min, 1 h, 2 h, 4 h, 8 h, 24 h), and 30 μL whole blood was collected from rim of the eyes of mice in the PO group at each pre-determined time point (15 min, 30 min, 1 h, 2 h, 4 h, 8 h, 24 h). The whole blood was centrifuged (6,000 rpm, 5 min) to get blood plasma. All the blood plasma samples were stored in a refrigerator of −80° C. for further analysis.
Conditions of LC/MS/MS was as follows:
Pharmacokinetic parameters were estimated according to non-compartment model (calculated by WinNonlin software): […]
IV paramater: t1/2 (hr); C0 (ng/mL); AUClast (hr*ng/mL); AUCInf (hr*ng/mL); AUC Extr (%); Vz (L/kg); Vss (L/kg); CL (mL/min/kg); MRT (hr).
PO parameter: t1/2 (hr); tmax (hr); Cmax (ng/mL); AUClast (hr*ng/mL); AUCInf (hr*ng/mL); AUC Extr (%); MRT (hr); AUC/D (hr*mg/mL); F (%).

[6] = test system: MiaPaCa-2 human pancreatic cancer cell strain; test: In vitro anti-proliferation of tumor cells (CCK-8), MiaPaCa-2; type: cell-based; settings: MIA PaCa-2, MiaPaCa-2, 72 hours
Experimental: as §1
MiaPaCa-2 human pancreatic cancer cell strain (purchased from American ATCC);
as §2, §3, §4, §5, §6, §7, §8

[7] = test system: HCT116 human colon cancer cell strain; test: In vitro anti-proliferation of tumor cells (CCK-8), HCT-116; type: cell-based; settings: HCT-116, 72 hours
Experimental: as §1
HCT116 human colon cancer cell strain (purchased from Shanghai Institute of Cell Biology, Chinese Academy of Sciences);
as §2, §3, §4, §5, §6, §7, §8

[8] = test system: 786-O human renal clear cell carcinoma cell strain; test: In vitro anti-proliferation of tumor cells (CCK-8), 786-O; type: cell-based; settings: 786-0, 72 hours
Experimental: as §1
786-O human renal clear cell carcinoma cell strain (purchased from Shanghai Institute of Cell Biology, Chinese Academy of Sciences);
as §2, §3, §4, §5, §6, §7, §8

[9] = test system: MDA-MB-231 human mammary cancer cell strain; test: In vitro anti-proliferation of tumor cells (CCK-8), MDA-MB-231; type: cell-based; settings: for IC50: Homo sapiens, MDA-MB-231, 72 hours, CCK-8
Experimental: as §1
MDA-MB-231 human mammary cancer cell strain (purchased from Shanghai Institute of Cell Biology, Chinese Academy of Sciences);
as §2, §3, §4, §5, §6, §7, §8

[10] = PO 5 mg/kg, average of three mice

| SMILES | IC50 [1] | IC50 [2] | IC50 [3] | IC50 [4] | IC50 [5] | bioavailability (Pharmacokinetics in mice) | AUC(0-t) (Pharmacokinetics in mice; [10]) | IC50 [6] | IC50 [7] | IC50 [8] | IC50 [9] | Cmax (Pharmacokinetics in mice; PO 5 mg/kg, average of three mice, read-out: Cmax (peak concentration)) | IC50 as fold of that of Sorafenib ([9]; MDA-MB-231 cell line) |
| --- | --- | --- | --- | --- | --- | --- | --- | --- | --- | --- | --- | --- | --- |
| CNC(=O)c1cc(Oc2ccc(NC(=O)Nc3ccc(Cl)c(C(F)(F)F)c3)cc2)ccn1 [Comparative example 1, Sorafenib, reference compound] | 0.947 µM | 1.27 µM | 5.49 µM | 22 µM | 17.9 µM | 78.6% | 18900 ng·h/mL | 3.06 µM | 4.56 µM | 4.51 µM | 10 µM |  |  |
| Cn1cc(-c2nccc(Oc3ccc(NC(=O)Nc4ccc(Cl)c(C(F)(F)F)c4)cc3)c2Cl)cn1 [Example 2, 1-(4-chloro-3-(trifluoromethyl)phenyl)-3-(4-(3-chloro-2-(1-methyl-pyrazol-4-yl)-pyridin-4-yl-oxy)phenyl)urea] | 0.808 µM | 1.05 µM | 4.71 µM | 18.2 µM | 5.76 µM | 82.9% | 56600 ng·h/mL | 2.34 µM | 3.16 µM | 2.77 µM | 3.05 µM | 3010 ng/mL | 0.30 fold |
